How the values were obtained:
Type in all cases: in vivo
Wheat (Triso) [1] = assay: Pre-emergence herbicidal effect and safener effect, wheat; settings: for % Reduction: reduction of effect by safener
Source text: (§1) Seeds or rhizome pieces of mono- and dicotyledonous weed plants and crop plants were planted in peat pots in sandy loam and covered with earth. The herbicide/safener active ingredient combinations according to the invention, formulated as water-soluble powders or suspensions, and, in parallel experiments, the correspondingly formulated individual active ingredients were then applied to the surface of the covering earth at an application rate of 600 to 800 l of water/ha (converted) in a variety of dosages.

Corn (Aventura) [2] = assay: Post-emergence herbicidal effect and safener effect, corn; settings: for % Reduction: reduction of effect by safener
Protocol: (§2) Seeds or rhizome pieces of mono- and dicotyledonous harmful plants and of crop plants are planted in peat pots in sandy loam, covered with earth and grown in a greenhouse under good growth conditions. Alternatively to this, harmful plants occurring in the paddy rice cultivation are cultivated in pots in which water stands up to 2 cm above the soil surface. 10 to 20 days after sowing, the test plants are treated in the one to three-leaf stage. The herbicide/safener active ingredient combinations according to the invention, formulated as water-soluble powders or suspensions, and, in parallel experiments, the correspondingly formulated individual active ingredients are sprayed onto the green plant parts in various dosages using an application rate of 300 l of water/ha (converted) and, after the test plants have remained in the greenhouse under optimum growth conditions for 2-3 weeks, the effect of the preparations is scored visually in comparison with untreated controls. In the case of rice or in the case of harmful plants which occur in the rice cultivation, the active ingredients are also placed directly into the irrigation water (application analogous to the so-called granules application) or sprayed onto plants and into the irrigation water.

Barley (Adonis) = assay: Post-emergence herbicidal effect and safener effect, barley; settings: herbicide 20 g a.i./ha, no safener, scored visually vs untreated controls
Protocol: as §2

Wheat (Triso) [3] = assay: Post-emergence herbicidal effect and safener effect, wheat; settings: for % effect (with safener) / % Reduction: herbicide I-2 20 g a.i./ha + safener 50 g a.i./ha; for % Reduction: reduction of effect by safener
Protocol: as §2

Rice (Ballila) = assay: Post-emergence herbicidal effect and safener effect, rice; settings: for % effect (with safener) / % Reduction: herbicide I-2 80 g a.i./ha + safener 200 g a.i./ha; for % Reduction: reduction of effect by safener
Protocol: as §2

Corn (Aventura) [4] = assay: Pre-emergence herbicidal effect and safener effect, corn; settings: for % effect (with safener) / % Reduction: herbicide I-2 80 g a.i./ha + safener 200 g a.i./ha; for % Reduction: reduction of effect by safener
Source text: as §1

[5] = herbicide I-2 20 g a.i./ha + safener 50 g a.i./ha
[6] = herbicide I-2 20 g a.i./ha alone
[7] = herbicide I-2 80 g a.i./ha alone
[8] = herbicide I-2 80 g a.i./ha + safener 200 g a.i./ha

## CC1(C)OC(c2ccco2)CN1C(=O)C(Cl)Cl (racemic) [Compound S3-10, (RS)-3-dichloroacetyl-5-(2-furyl)-2,2-dimethyloxazolidine]
Wheat (Triso) [1]; [5]
  % effect (with safener): 10%
  % Reduction: 67%
Corn (Aventura) [2]; [5]
  % effect (with safener): 20%
  % Reduction: 50%

## COC(=O)c1nc(C2CC2)cc(N)c1Cl [Compound I-2, methyl 4-amino-3-chloro-6-cyclopropyl-2-pyridinecarboxylate]
Wheat (Triso) [1]; [6]
  % effect (without safener): 30%
Wheat (Triso) [1]; [7]
  % effect (without safener): 30%
Barley (Adonis)
  % effect (without safener): 20%
Corn (Aventura) [2]; [6]
  % effect (without safener): 40%
Corn (Aventura) [2]; [7]
  % effect (without safener): 40%
Wheat (Triso) [3]; [6]
  % effect (without safener): 20%
Rice (Ballila); [7]
  % effect (without safener): 30%
Corn (Aventura) [4]; [7]
  % effect (without safener): 35%

## CCCCCC(C)OC(=O)COc1ccc(Cl)c2cccnc12 (stereo not drawn) [Compound S2-1, 1-methylhexyl(5-chloro-8-quinolinoxy)acetate]
Wheat (Triso) [1]; [8]
  % effect (with safener): 20%
  % Reduction: 33%
Corn (Aventura) [2]; [5]
  % effect (with safener): 20%
  % Reduction: 50%
Rice (Ballila)
  % effect (with safener): 10%
  % Reduction: 67%

## CC1COc2ccccc2N1C(=O)C(Cl)Cl (stereo not drawn) [Compound S3-4, 4-dichloroacetyl-3,4-dihydro-3-methyl-2H-1,4-benzoxazine]
Corn (Aventura) [2]; [8]
  % effect (with safener): 10%
  % Reduction: 75%

## FC(F)(F)C(=NOCC1OCCO1)c1ccc(Cl)cc1 [Compound S11-2, 1-(4-chlorophenyl)-2,2,2-trifluoro-1-ethanone O-(1,3-dioxolan-2-ylmethyl)oxim]
Wheat (Triso) [1]; [5]
  % effect (with safener): 20%
  % Reduction: 33%

## O=C(O)c1nc(C(Cl)(Cl)Cl)n(-c2ccc(Cl)cc2Cl)n1 [Fenchlorazole]
Wheat (Triso) [1]; [5]
  % effect (with safener): 10%
  % Reduction: 67%

## CCOC(=O)C1=NOC(c2ccccc2)(c2ccccc2)C1 [Isoxadifen-ethyl, ethyl 5,5-diphenyl-2-isoxazoline-carboxylate]
Wheat (Triso) [1]; [5]
  % effect (with safener): 10%
  % Reduction: 67%
Corn (Aventura) [2]; [8]
  % effect (with safener): 20%
  % Reduction: 50%
Wheat (Triso) [3]
  % effect (with safener): 0%
  % Reduction: 100%
Rice (Ballila)
  % effect (with safener): 20%
  % Reduction: 33%
Corn (Aventura) [4]
  % effect (with safener): 25%
  % Reduction: 29%

## CCOC(=O)C1=NN(c2ccc(Cl)cc2Cl)C(C)(C(=O)OCC)C1 (stereo not drawn) [Mefenpyr-diethyl, ethyl 1-(2,4-dichlorophenyl)-5-(ethoxycarbonyl)-5-methyl-2-pyrazoline-3-carboxylate]
Wheat (Triso) [1]; [5]
  % effect (with safener): 20%
  % Reduction: 33%
Corn (Aventura) [2]; [5]
  % effect (with safener): 20%
  % Reduction: 50%
Wheat (Triso) [3]
  % effect (with safener): 0%
  % Reduction: 100%
Corn (Aventura) [4]
  % effect (with safener): 20%
  % Reduction: 43%

— patent US20100137136A1, “HERBICIDE/SAFENER COMBINATION” (BAYER CROPSCIENCE AG, priority 2008, published 2010)
